From patent US11974992B2, “Use of serotonin 5-HT1A receptor agonists to treat diseases associated with sudden unexpected death in epilepsy” (Neurolixis, priority 2022, dated 2024)
“Also recorded” adds a separate entry of the source.

Assays:
FMR1 knock-out (KO) mice = test: Audiogenic tonic-clonic seizures (TCS) in FMR1 transgenic mice; format: in vivo, mouse
Description: Audiogenic Tonic-Clonic Seizures (TCS) in FMR1 Transgenic Mice
FMR1 knock-out (KO) mice were bred and weaned at postnatal day 21 (P21), and all mice were tested between P21 to P23. NLX-101 was administered at doses of 0.6, 1.2, 1.8 and 2.4 mg/kg i.p. Control FMR1 KO mice received saline. NLX-101 or saline was injected 10 min before subjecting the mice to the auditory stimulus.
To differentiate each mouse for post-hoc video analysis, mice were color coded prior to drug or saline administration. Mice (up to 4/cage) were then put in a cage with a lid; after 10 min, a speaker was placed on top of the lid, and the cage placed in a sound attenuation booth (Gretch-Ken Inc., OR); the auditory stimulus was a continuously alternating up and down frequency modulated sweep with frequencies between 2-8 kHz, presented at an intensity between 105-110 dB for 15 min. The procedure lasted a total of 20 min starting with 5 min of habituation (without a sound stimulus). The full 20-min procedure was video recorded for off-line analysis.
The typical behavior of FMR1 knock-out mice subjected to loud audio stimulus includes tonic-clonic seizures (TCS: the mouse lays on the cage bottom with hindlimb extension), and death by respiratory arrest (manifested by a deep respiratory gasp and relaxation of pinna).
The latency time (from the stimulus onset) to the occurrence of TCS and death were recorded with a stopwatch (precision: 1 sec). Survival analysis was used to analyze the probability of TCS or death by log-rank test.

wild-type male mice = test: Maximal electroshock seizure (MES) test; format: in vivo, mouse; conditions: 0.02 to 2 mg/kg i.p., 30 and 120 min post-injection
Description: Seizures Induced in the Maximal Electroshock Seizure (MES) Test
Experiments were carried out in accordance with the National Institute of Neurological Disorders and Stroke (NINDS) Epilepsy Therapy Screening Program (https://panache.ninds.nih.gov/TestDescription/TestMES). The MES test was carried out using wild-type male mice. MES is a model for generalized tonic-clonic seizures and provides an indication of a compound's ability to prevent seizure spread when all neuronal circuits in the brain are maximally active (White H S, Johnson M, Wolf H H, Kupferberg H J. The early identification of anticonvulsant activity: role of the maximal electroshock and subcutaneous pentylenetetrazol seizure models. Ital J Neurol sci. 1995; 16:73-7). These seizures are highly reproducible and are electrophysiologically consistent with human seizures. Seizures were induced by a high frequency (60 Hz) of alternating current at 50 mA over a short duration (0.2 sec) delivered through corneal electrodes. Prior to stimulation, corneas were irrigated with 0.5% tetracaine hydrochloride for local anesthesia and 0.9% saline to improve electrical conductivity. Seizures induced by MES are characterized by tonic extension of forelimbs and hindlimbs that is followed by brief episodes of clonic activity of the forelimbs and hindlimbs. […]

[1] = test system: mouse model of the Rett syndrome; conditions: cited from earlier work
wild-type male CF-1 mice = test: Seizures induced by corneal electrical stimulation (CES, 6 Hz, 44 mA); format: in vivo, mouse
Description: Seizures Induced by Corneal Electrical Stimulation (CES) in Wild-Type Mice
Experiments were carried out in accordance with the National Institute of Neurological Disorders and Stroke (NINDS) Epilepsy Therapy Screening Program (https://panache.ninds.nih.gov/TestDescription/Test6HZ). The CES test was carried out using wild-type male CF-1 mice. Seizures were induced by a low frequency (6 Hz, 0.2 msec rectangular pulse), long-duration (3 sec), 44 mA current (double the current producing seizures in 97% of animals) delivered through corneal electrodes (Barton M E, Klein B D, Wolf H H, White H S. Pharmacological characterization of the 6 Hz psychomotor seizure model of partial epilepsy. Epilepsy Res. 2001; 47:217-27). A drop of 0.5% tetracaine hydrochloride in 0.9% saline (anesthetic/electrolyte) solution was applied to the eyes just prior to the placement of corneal electrodes. The seizure in mice is characterized by an initial momentary stun followed immediately by jaw clonus, forelimb clonus, twitching of the vibrissae, and “Straub tail”. Animals not displaying this behavior within the one-minute observation period are considered “protected” from seizures.
Testing for anti-seizure activity in the CES model was performed with 4 male mice/dose/time point. […] of NLX-101 (0.02, 0.06, 0.5, 1 and 2 mg/kg i.p.) and two timepoints (30 and 120 min after drug administration) were tested.

humans = conditions: cited from earlier work

For Cc1cnc(CNCC2(F)CCN(C(=O)c3ccc(F)c(Cl)c3)CC2)nc1 [NLX-101], the “number of FMR1 knock-out mice that died” value (FMR1 knock-out (KO) mice; 0.6-2.4 mg/kg i.p., 10 min before auditory stimulus, significant effects at 1.2, 1.8 and 2.4 mg/kg) was “dose-dependently reduced”, the “percentage of FMR1 knock-out mice displaying tonic-clonic seizures” value (FMR1 knock-out (KO) mice; 0.6-2.4 mg/kg i.p., 10 min before auditory stimulus, significant effects at 1.8 and 2.4 mg/kg) was “potently and efficaciously reduced seizures; also recorded: dose-dependently reduced” and the “mice protected from death” value (FMR1 knock-out (KO) mice; audiogenic tonic-clonic seizure model in FMR1 knock-out mice) was “over 75%”. The “occurrence of seizures in the MES test” value (wild-type male mice) was “did not exhibit any anti-seizure activity; also recorded: did not affect the occurrence of seizures”, the respiratory abnormalities [1] was “improves the respiratory abnormalities” and the “anti-seizure activity in the CES test” value (wild-type male CF-1 mice; 0.02 to 2 mg/kg i.p., 30 and 120 min) was “did not exhibit any anti-seizure activity”. For the same molecule, the “mice with reduced seizure occurrence in the CES test” value (wild-type male CF-1 mice; highest dose tested (2 mg/kg i.p.), 30 min post injection) was 1 out of 4.

In the case of N#Cc1ccc2[nH]cc(CCCCN3CCN(c4ccc5oc(C(N)=O)cc5c4)CC3)c2c1 [vilazodone], the seizures in humans (humans) is given as “induces seizures”.
